The subject of series [1] is oral mucositis induced by acute irradiation in hamsters. The series can be described thus: Radiation-induced oral mucositis in hamsters (acute radiation model, mucositis scoring). Format: in vivo, Golden Syrian hamsters. Particulars: for days with ulcerations (animal days with mucositis score of 3 or more) / daily mucositis scores, rank sum analysis vs vehicle control / reduction in ulceration vs vehicle control: day −2 to day 16; for days with ulcerations (animal days with mucositis score of 3 or more): vehicle control 56 days. From the text:
A hamster model of chemotherapy-induced mucositis and, more recently, a model of radiation-induced mucositis has been developed (Sonis S. et al. Oral Surg. Oral. Med. Oral Pathol. 69:437-443 (1990) and Sonis S. et al. Cancer, 85:2103-13 (1999)). In the latter model, specific doses of acute radiation are targeted to the designated mucosa, with protection of other areas by a customized lead shield.
The objective of this study was to assess the effect of the topical and IP administration of (3R,S)-5-fluoro-3-[(2S)-3-methyl-1-oxo-2-(phenylcarbam-oyloxy)butyl]amino-4-oxo-pentanoic acid (a caspase inhibitor described in U.S. Application Ser. Nos. 60/151,077 and 60/158,373), in attenuating the development and progress of oral mucositis induced by acute irradiation in hamsters. Mucositis scores in hamsters receiving different doses of the compound were compared to those in hamsters receiving vehicle control, in order to detect statistically significant differences in the onset, duration or severity of the disorder.
Thirty-two (32) hamsters were randomly divided into four treatment groups with eight (8) animals per group. Each group was assigned a different treatment as follows:
Group 1: Vehicle control—topical vehicle control, tid (3 times daily), day −2 to day 16.
Group 2: Test compound at 20 mg/kg, IP once per day, day −2 to day 16.
Group 3: Test compound at 0.36 mg/ml (0.2 ml), topical, tid, day −2 to day 16.
Group 4: Test compound at 0.072 mg/ml (0.2 ml), topical, tid, day −2 to day 16.
viii) Starting on day 6 and continuing every second day thereafter (days 8, 10, 12, 14, 16, 18, 20, 22, 24, 26 & 28), each animal was photographed and evaluated for mucositis scoring.
dose of radiation (35 Gy/dose) was administered to all animals on Day 0. Radiation was generated with a 250 kilovolt potential (15-mA) source at a focal distance of 50 cm, hardened with a 0.35 mm Cu filtration system. Irradiation targeted the left buccal pouch mucosa at a rate of 121.5 cGy/minute. Prior to irradiation, animals were anesthetized with an intraperitoneal injection of sodium pentobarbital (80 mg/kg). The left buccal pouch was everted, fixed and isolated using a lead shield.
Topical dosing of animals was done three times per day. For topical treatments, a needleless tuberculin syringe, containing 0.2 ml of the test compound in 0.05M Tris (pH 8.0), was inserted into the left cheek pouch and the drug deposited into the pouch. Intraperitoneal injections of the compound were done once a day at a dose of 20 mg/kg and a drug concentration of 3-6 mg/ml in 0.05M Tris (pH 8.0). Dosing began on day −2 for all groups. In all groups treatment continued until day 16.
Mucositis Evaluation The mucositis score, weight change and survival were measured as outcomes in this study. For the evaluation of mucositis, the animals were anesthetized with inhalation anesthetics, and the left pouch everted. Mucositis was scored visually by comparison to a validated photographic scale, ranging from 0 for normal, to 5 for severe ulceration (clinical scoring). In descriptive terms, this scale is defined as follows: […]
A score of 1-2 is considered to represent a mild stage of the disease, whereas a score of 3-5 is considered to indicate moderate to severe mucositis. Following visual scoring, a photograph was taken of each animal's mucosa using a standardized technique. At the conclusion of the experiment, all films were developed and the photographs randomly numbered. At least two independent trained observers graded the photographs in blinded fashion using the above described scale (blinded scoring).

Series [2] can be described thus: Weight change and survival in the hamster mucositis study. Format: in vivo, Golden Syrian hamsters. Particulars: at the doses used: 20 mg/kg IP; 0.36 and 0.072 mg/ml topical. From the text:
i) Every day for the period of the study (day −2 to day 28), each animal was weighed and its survival recorded (to accommodate the schedules of the study site weights were taken every other day starting on day 17 and continuing to day 28).
Male Golden Syrian hamsters (Charles River Laboratories or Harlan Sprague Dawley), aged 5 to 6 weeks, with body weights of approximately 90 g at project commencement, were used. Animals were individually numbered using an ear punch and housed in small groups of 2 animals per cage. Animals were acclimatized for at least one week prior to project commencement. During this period, the animals were observed daily in order to reject animals that present poor condition.
Topical dosing of animals was done three times per day. For topical treatments, a needleless tuberculin syringe, containing 0.2 ml of the test compound in 0.05M Tris (pH 8.0), was inserted into the left cheek pouch and the drug deposited into the pouch. Intraperitoneal injections of the compound were done once a day at a dose of 20 mg/kg and a drug concentration of 3-6 mg/ml in 0.05M Tris (pH 8.0). […]
Mucositis Evaluation The mucositis score, weight change and survival were measured as outcomes in this study. […] Mucositis was scored visually by comparison to a validated photographic scale, ranging from 0 for normal, to 5 for severe ulceration (clinical scoring). […]

The next series relates to Jurkat T leukemia cells. Kind of series: Propidium iodide uptake assay of apoptosis induced by chemotherapeutic agents or UV irradiation in Jurkat T cells. Format: cell-based. To be noted: 18 h. The protocol: Jurkat T leukemia cells were grown in RPMI 1640 media (Life Technologies, Inc.)+10% FCS (Sigma Chemical Company) in a 5% CO2 -95% humidity incubator at 37° C., and maintained at a cell density between 4 and 8×10^5 cells/ml. 1×10^6 cells were treated with Doxorubicin (1 μM) or Paclitaxel (20 μM) or UV irradiation (40 J/m^2) with or without the caspase inhibitor Z-VD-fmk (10 μM) and incubated at 37° C. for 18 h. As a control, cells were also incubated with DMSO. At 18 h cells were observed under phase contrast microscopy to visualize any morphological changes induced by the apoptotic stimuli. Cells were assessed for viability by a propidium iodide uptake assay. Briefly, 20 μl of propidium solution containing 100 μg/ml of propidium iodide was added to 200 μl of cells and transferred to 12×75mm polystyrene tubes and analyzed on a flow cytometer. All flow cytometry analyses were performed on FACScalibur (Becton Dickinson) using CellQuest analysis software.
FIGS. 1A-C depict photographs of Jurkat cells: FIG. 1A, DMSO treated control cells; FIG. 1B, cells treated with doxorubicin (1 μM); FIG. 1C, cells treated with doxorubicin (1 μM) and Z-VD-fmk (10 μM). FIG. 1D depicts a bar graph showing percentage of cell apoptosis as measured by a propidium iodide uptake assay: a, DMSO treated control cells; b, cells treated with doxorubicin; c, cells treated with doxorubicin and Z-VD-fmk.
FIGS. 2A-C depict photographs of Jurkat cells: FIG. 2A, DMSO treated control cells; FIG. 2B, cells treated with paclitaxel (20 μM); FIG. 2C, cells treated with paclitaxel (20 μM) and Z-VD-fink (10 μM). FIG. 2D depicts a bar graph showing percentage of cell apoptosis as measured by a propidium iodide uptake assay: a, DMSO treated control cells; b, cells treated with paclitaxel; c, cells treated with paclitaxel and Z-VD-fink.
FIGS. 3A-C depict photographs of Jurkat cells: FIG. 3A, DMSO treated control cells; FIG. 3B, cells treated with UV irradiation (40 J/m^2); FIG. 3C, cells treated with UV irradiation (40 J/m2) and Z-VD-fmk (10 μM). […]

In the case of `CC(C)[C@H](OC(=O)Nc1ccccc1)C(=O)NC(CC(=O)O)C(=O)CF` (stereo partly drawn) [test compound, (3R,S)-5-Fluoro-3-[(2S)-3-methyl-1-oxo-2-(phenylcarbamoyloxy)butyl]amino-4-oxo-pentanoic Acid], the “days with ulcerations (animal days with mucositis score of 3 or more)” value in series [1] (0.072 mg/ml (0.2 ml) topical tid) was determined as 42 days; in series [1] (0.36 mg/ml (0.2 ml) topical tid), 27 days; in series [1] (20 mg/kg IP once per day), 39 days. The “daily mucositis scores, rank sum analysis vs vehicle control” value in series [1] (0.072 mg/ml topical tid) was “Significance was achieved only on day 18”; in series [1] (0.36 mg/ml topical tid) it was “significant reduction of mucositis on days 18, 20, 22 & 26”; in series [1] (20 mg/kg IP once per day), “significant reduction in mucositis severity on days 20 and 22”. Besides, the “reduction in ulceration vs vehicle control” value in series [1] (0.072 mg/ml topical tid, p=0.061, not significant) was 25%; in series [1] (0.36 mg/ml topical tid, p<0.001), 51.8%; in series [1] (20 mg/kg IP once per day, p=0.068, not significant) it was 24.8%. In series [1] (day 0 to day 16, all treatment groups), the onset of ulceration result is recorded as “no apparent reduction in the onset of ulceration”. For the same molecule, the “systemic toxicity (mortality due to the treatment)” value in series [2] is given as “no systemic toxicity”.
Take `CC(C)[C@H](NC(=O)OCc1ccccc1)C(=O)NC(CC(=O)O)C(=O)CF` (some centres unmarked) [Z-VD-fmk]: in the series with Jurkat T leukemia cells (Doxorubicin 1 μM, Z-VD-fmk 10 μM, FIGS. 1A-D), the “doxorubicin induced cell death in Jurkat cells” value was “blocks doxorubicin induced cell death”. In the series with Jurkat T leukemia cells (Paclitaxel 20 μM, Z-VD-fmk 10 μM, FIGS. 2A-D), the “paclitaxel induced cell death in Jurkat cells” value is “blocks paclitaxel induced cell death”. Moreover, the “UV irradiation induced cell death in Jurkat cells” value with Jurkat T leukemia cells (UV irradiation 40 J/m^2, Z-VD-fmk 10 μM, FIGS. 3A-D) is “blocks UV irradiation induced cell death”.

The values above are taken from patent US6566338B1, “Caspase inhibitors for the treatment and prevention of chemotherapy and radiation therapy induced cell death” (Cytovia, Inc., priority 1999, dated 2003).
